Data reported in US9216973B2, “Insecticidal compounds” (Syngenta Participations AG, priority 2008, dated 2015).

Test system: Plutella xylostella (Diamond back moth)
Assay: Plutella xylostella larvae test on artificial diet
Format: in vivo
Conditions: for effect on mortality, feeding behavior, or growth regulation: same protocol, 200 ppm; for pest or weed control at 200 ppm: 144 h, 200 ppm (concentration in well 18 ppm), artificial diet, L2 larvae, larval mortality and growth regulation after 6 days
Method: This Example illustrates the insecticidal and acaricidal properties of compounds of formula (I). The tests were performed as follows:
Cotton leaf discs were placed on agar in a 24-well microtiter plate and sprayed with test solutions at an application rate of 200 ppm. After drying, the leaf discs were infested with 5 L1 larvae. The samples were checked for mortality, feeding behavior, and growth regulation 3 days after treatment (DAT). The following compound gave at least 80% control of Spodoptera littoralis: A1, A2, A5, A6, A7, A8, A10, A11, A12, A13, A14, A15, A16, A17, A18, A19, A21, A22, A23, A24, A25, A30, A31, A32, A33, A34, A35, A39, A40, A41 A42, A43, A44, A45, A46, A47, A48, A49, A50, A51, A53, A54, A55, A59, A60, A61, A62. Heliothis virescens (Tobacco budworm): Eggs (0-24 h old) were placed in 24-well microtiter plate on artificial diet and treated with test solutions at an application rate of 200 ppm (concentration in well 18 ppm) by pipetting. After an incubation period of 4 days, samples were checked for egg mortality, larval mortality, and growth regulation. The following compound gave at least 80% control of Heliothis virescens: A1, A2, A3, A4, A5, A6, A7, A8, A10, A11, A12, A13, A14, A15, A16, A18, A19, A21, A22, A24, A25, A30, A31, A32, A33, A34, A35, A37, A38, A39, A40, A42, A43, A44, A45, A46, A47, A48, A49, A50, A51, A55, AA57, A58, A59, A60, A61, A62. Plutella xylostella (Diamond back moth): 24-well microtiter plate (MTP) with artificial diet was treated with test solutions at an application rate of 200 ppm (concentration in well 18 ppm) by pipetting. After drying, the MTP's were infested with L2 larvae (7-12 per well). After an incubation period of 6 days, samples were checked for larval mortality and growth regulation. The following compound gave at least 80% control of Plutella xylostella: A1, A2, A5, A6, A7, A8, A9, A10, A11, A12, A13, A14, A15, A16, A17, A18, A19, A20, A21, A22, A24, A25, A30, A31, A32, A33, A34, A35, A37, A38, A39, A40, A42, A43, A44, A45, A46, A47, A48, A49, A50, A51, A52, A53, A54, A55, A57, A58, A59, A60, A61, A62, B3. Diabrotica balteata (Corn root worm): A 24-well microtiter plate (MTP) with artificial diet was treated with test solutions at an application rate of 200 ppm (concentration in well 18 ppm) by pipetting. After drying, the MTP's were infested with L2 larvae (6-10 per well). After an incubation period of 5 days, samples were checked for larval mortality and growth regulation. The following compound gave at least 80% control of Diabrotica balteata: A1, A2, A5, A6, A7, A10, A11, A12, A13, A14, A15, A16, A17, A18, A19, A21, A22, A24, A25, A30, A31, A32, A33, A34, A35, A38, A39, A40, A42, A43, A44, A45, A46, A47, A48, A49, A50, A59, A60, A61, A62. Thrips tabaci (Onion thrips): Sunflower leaf discs were placed on agar in a 24-well microtiter plate and sprayed with test solutions at an application rate of 200 ppm. After drying, the leaf discs were infested with an […] population of mixed ages. After an incubation period of 7 days, samples were checked for mortality. The following compounds gave at least 80% control of Thrips tabaci: A1, A2, A5, A6, A7, A8, A10, A12, A13, A14, A15, A16, A17, A18, A19, A21, A24, A25, A30, A31, A32, A33, A34, A35, A39, A42, A43, A44, A45, A46, A47, A48, A49, A50, A51, A53, A54, A57, A58, A59, A60, A61, A62. Tetranychus urticae (Two-spotted spider mite): Bean leaf discs on agar in 24-well microtiter plates were sprayed with test solutions at an application rate of 200 ppm. After drying, the leaf discs are infested with mite populations of mixed ages. 8 days later, discs are checked for egg mortality, larval mortality, and adult mortality. The following compound gave at least 80% control of Tetranychus urticae: A1, A2, A4, A5, A6, A7, A8, A10, A11, A12, A13, A14, A15, A16, A17, A18, A19, A20, A21, A22, A30, A31, A32, A33, A34, A35, A39, A40, A41, A42, A43, A44, A45, A46, A47, A48, A49, A50, A51, A53, A54, A55, A57, A59, A60, A61, A62.

## Cc1nc2c(C3=NOC(c4cc(Cl)cc(Cl)c4)(C(F)(F)F)C3)ccc(C(=O)NC3(C)CSC3)c2o1 (centres unmarked) [A27]
  effect on mortality, feeding behavior, or growth regulation: little or no effect

## Cc1cc(C2=NOC(c3cc(Cl)cc(Cl)c3)(C(F)(F)F)/C2=N/O)ccc1C(=O)NC1CS(=O)(=O)C1 (centres unmarked) [A55]
  pest or weed control at 200 ppm: ≥ 80%

## O=C(NC1C[S+]([O-])C1)c1ccc(C2=NOC(c3cc(Cl)cc(Cl)c3)(C(F)(F)F)C2Br)c2ccccc12 (centres unmarked) [A44]
  pest or weed control at 200 ppm: ≥ 80%

## Cc1cc(C2CC(c3cc(Cl)cc(Cl)c3)(C(F)(F)F)ON2C)ccc1C(=O)NC1C[S+]([O-])C1 (centres unmarked) [A18]
  pest or weed control at 200 ppm: ≥ 80%

## Cc1cc(C2=NCC(c3cc(Cl)cc(Cl)c3)(C(F)(F)F)C2)ccc1C(=O)NC1CSC1 (centres unmarked) [A49]
  pest or weed control at 200 ppm: ≥ 80%

## CC1(NC(=O)c2ccc(C3=NOC(c4cc(Cl)cc(Cl)c4)(C(F)(F)F)C3)c3ccccc23)CSC1 (centres unmarked) [A1]
  pest or weed control at 200 ppm: ≥ 80%

## Cc1cc(C2=NN(C)C(c3cc(Cl)cc(Cl)c3)(C(F)(F)F)C2)ccc1C(=O)NC1CSC1 (centres unmarked) [A14]
  pest or weed control at 200 ppm: ≥ 80%

## Cc1cc(C2CC(c3cc(Cl)cc(Cl)c3)(C(F)(F)F)ON2C)ccc1C(=O)NC1CS(=O)(=O)C1 (centres unmarked) [A19]
  pest or weed control at 200 ppm: ≥ 80%

## Cc1cc(C2=NOC(c3cc(Cl)cc(Cl)c3)(C(F)(F)F)C2Br)ccc1C(=O)NC1C[S+]([O-])C1 (centres unmarked) [A7]
  pest or weed control at 200 ppm: ≥ 80%

## Cc1cc(C2=NOC(c3cc(Cl)cc(Cl)c3)(C(F)(F)F)C2Br)ccc1C(=O)NC1(C)CSC1 (centres unmarked) [A5]
  pest or weed control at 200 ppm: ≥ 80%

## O=C(NC1CS(=O)(=O)C1)c1ccc(C2=NOC(c3cc(Cl)cc(Cl)c3)(C(F)(F)F)C2)c2ccccc12 (centres unmarked) [A15]
  pest or weed control at 200 ppm: ≥ 80%

## O=C(NC1CS(=O)(=O)C1)c1ccc(C2=NOC(c3cc(Cl)cc(Cl)c3)(C(F)(F)F)C2Br)c2ccccc12 (centres unmarked) [A42]
  pest or weed control at 200 ppm: ≥ 80%

## Cc1cc(N2CC(c3cc(Cl)cc(Cl)c3)(C(F)(F)F)OC2=O)ccc1C(=O)NC1CSC1 (centres unmarked) [A11]
  pest or weed control at 200 ppm: ≥ 80%

## Cc1cc(C2=NOC(c3cc(Cl)cc(Cl)c3)(C(F)(F)F)C2O)ccc1C(=O)NC1C[S+]([O-])C1 (centres unmarked) [A53]
  pest or weed control at 200 ppm: ≥ 80%

## O=C(NC1CS(=O)(=O)C1)c1ccc(C2=NOC(c3cc(Cl)cc(Cl)c3)(C(F)(F)F)C2)c2nsnc12 (centres unmarked) [A22]
  pest or weed control at 200 ppm: ≥ 80%

## Cc1cc(C2=NOC(c3cc(Cl)cc(Cl)c3)(C(F)(F)F)/C2=N/O)ccc1C(=O)NC1(C)CSC1 (centres unmarked) [A56]
  effect on mortality, feeding behavior, or growth regulation: little or no effect

## Cc1cc(C2=NOC(c3cc(Cl)cc(Cl)c3)(C(F)(F)F)C2F)ccc1C(=O)NC1CSC1 (centres unmarked) [A61]
  pest or weed control at 200 ppm: ≥ 80%

## Cc1cc(C2=NOC(c3cc(Cl)cc(Cl)c3)(C(F)(F)F)C2O)ccc1C(=O)NC1CS(=O)(=O)C1 (centres unmarked) [A51]
  pest or weed control at 200 ppm: ≥ 80%

## O=C(NC1C[S+]([O-])C1)c1ccc(C2=NOC(c3cc(Cl)cc(Cl)c3)(C(F)(F)F)C2)c2ccccc12 (centres unmarked) [A16]
  pest or weed control at 200 ppm: ≥ 80%

## Cc1nc2c(C3=NOC(c4cc(Cl)cc(Cl)c4)(C(F)(F)F)C3)ccc(C(=O)NC3CSC3)c2o1 (centres unmarked) [A29]
  effect on mortality, feeding behavior, or growth regulation: little or no effect

## Cc1cc(C2=NCC(c3cc(Cl)cc(Cl)c3)(C(F)(F)F)C2)ccc1C(=O)NC1CS(=O)(=O)C1 (centres unmarked) [A46]
  pest or weed control at 200 ppm: ≥ 80%

## Cc1cc(C2=NOC(c3cc(Cl)cc(Cl)c3)(C(F)(F)F)C2Cl)ccc1C(=O)NC1C[S+]([O-])C1 (centres unmarked) [A34]
  pest or weed control at 200 ppm: ≥ 80%

## Cc1cc(N2CC(c3cc(Cl)cc(Cl)c3)(C(F)(F)F)OC2=O)ccc1C(=O)NC1C[S+]([O-])C1 (centres unmarked) [A10]
  pest or weed control at 200 ppm: ≥ 80%

## Cc1nc2c(C3=NOC(c4cc(Cl)cc(Cl)c4)(C(F)(F)F)C3)ccc(C(=O)NC3CS(=O)(=O)C3)c2o1 (centres unmarked) [A26]
  effect on mortality, feeding behavior, or growth regulation: little or no effect

## Cc1nc2c(C3=NOC(c4cc(Cl)cc(Cl)c4)(C(F)(F)F)C3)ccc(C(=O)NC3C[S+]([O-])C3)c2o1 (centres unmarked) [A28]
  effect on mortality, feeding behavior, or growth regulation: little or no effect

## Cc1cc(C2=NCC(c3cc(Cl)cc(Cl)c3)(C(F)(F)F)C2)ccc1C(=O)NC1(C)CSC1 (centres unmarked) [A47]
  pest or weed control at 200 ppm: ≥ 80%

## CC1(NC(=O)c2cccc3c(C4=NOC(c5cc(Cl)cc(Cl)c5)(C(F)(F)F)C4)cccc23)CSC1 (centres unmarked) [A36]
  effect on mortality, feeding behavior, or growth regulation: little or no effect

## Cc1cc(C2=NOC(c3cc(Cl)cc(Cl)c3)(C(F)(F)F)C2Cl)ccc1C(=O)NC1(C)CSC1 (centres unmarked) [A33]
  pest or weed control at 200 ppm: ≥ 80%

## Cc1cc(C2=NN(C)C(c3cc(Cl)cc(Cl)c3)(C(F)(F)F)C2)ccc1C(=O)NC1(C)CSC1 (centres unmarked) [A12]
  pest or weed control at 200 ppm: ≥ 80%

## Cc1cc(C2CC(c3cc(Cl)cc(Cl)c3)(C(F)(F)F)ON2C)ccc1C(=O)NC1CSC1 (centres unmarked) [A21]
  pest or weed control at 200 ppm: ≥ 80%

## O=C(NC1CSC1)c1ccc(C2=NOC(c3cc(Cl)cc(Cl)c3)(C(F)(F)F)C2)c2ccccc12 (centres unmarked) [A2]
  pest or weed control at 200 ppm: ≥ 80%

## Cc1cc(C2=NOC(c3cc(Cl)cc(Cl)c3)(C(F)(F)F)C2F)ccc1C(=O)NC1C[S+]([O-])C1 (centres unmarked) [A62]
  pest or weed control at 200 ppm: ≥ 80%

## Cc1cc(C2=NCC(c3cc(Cl)cc(Cl)c3)(C(F)(F)F)C2)ccc1C(=O)NC1C[S+]([O-])C1 (centres unmarked) [A48]
  pest or weed control at 200 ppm: ≥ 80%

## CC1(NC(=O)c2ccc(C3=NOC(c4cc(Cl)cc(Cl)c4)(C(F)(F)F)C3Br)c3ccccc23)CSC1 (centres unmarked) [A43]
  pest or weed control at 200 ppm: ≥ 80%

## Cc1cc(C2=NOC(c3cc(Cl)cc(Cl)c3)(C(F)(F)F)C2Br)ccc1C(=O)NC1CSC1 (centres unmarked) [A6]
  pest or weed control at 200 ppm: ≥ 80%

## Cc1cc(C2=NOC(c3cc(Cl)cc(Cl)c3)(C(F)(F)F)C2F)ccc1C(=O)NC1(C)CSC1 (centres unmarked) [A60]
  pest or weed control at 200 ppm: ≥ 80%

## Cc1cc(C2=NOC(c3cc(Cl)cc(Cl)c3)(C(F)(F)F)C2Cl)ccc1C(=O)NC1CS(=O)(=O)C1 (centres unmarked) [A32]
  pest or weed control at 200 ppm: ≥ 80%

## Cc1cc(C2=NOC(c3cc(Cl)cc(Cl)c3)(C(F)(F)F)O2)ccc1C(=O)NC1CSC1 (centres unmarked) [A17]
  pest or weed control at 200 ppm: ≥ 80%

## Cc1cc(C2=NN(C)C(c3cc(Cl)cc(Cl)c3)(C(F)(F)F)C2)ccc1C(=O)NC1C[S+]([O-])C1 (centres unmarked) [A13]
  pest or weed control at 200 ppm: ≥ 80%

## Cc1cc(C2=NOC(c3cc(Cl)cc(Cl)c3)(C(F)(F)F)C2F)ccc1C(=O)NC1CS(=O)(=O)C1 (centres unmarked) [A59]
  pest or weed control at 200 ppm: ≥ 80%

## Cc1cc(C2=NOC(c3cc(Cl)cc(Cl)c3)(C(F)(F)F)C2O)ccc1C(=O)NC1CSC1 (centres unmarked) [A54]
  pest or weed control at 200 ppm: ≥ 80%
